The values below come from PMC7245553 (Cell chemical biology, 2020).

For test [1], the system named is clinical drug-sensitive and drug-resistant strains of M. tuberculosis. Put plainly: Whole-cell activity versus clinical M. tuberculosis strains. The test is classed as cell-based, Mycobacterium tuberculosis.
Test [2] deals with DG167-resistant M. tuberculosis. Type of test: cell-based, Mycobacterium tuberculosis.

Regarding `CCCCS(=O)(=O)Nc1ccc2[nH]c(C#N)c(C)c2c1` [Compound 9, N-(2-cyano-3-methyl-1H-indol-5-yl)butane-1-sulfonamide], the “whole-cell activity versus clinical strains” value in test [1] was “maintained their in vitro potency”. Besides, the “cross-resistance with DG167” value in test [2] was “cross-resistant”.

Take `CCCCCS(=O)(=O)Nc1ccc2[nH]c(C#N)c(C)c2c1` [Compound 10, N-(2-cyano-3-methyl-1H-indol-5-yl)pentane-1-sulfonamide]: the “whole-cell activity versus clinical strains” value in test [1] is given as “maintained their in vitro potency”. Moreover, the “cross-resistance with DG167” value in test [2] is on record as “cross-resistant”.

For `Cc1n[nH]c2ccc(NS(=O)(=O)CCCCF)cc12` [JSF-3285, 4-fluoro-N-(3-methyl-1H-indazol-5-yl)butane-1-sulfonamide], in test [1], the “whole-cell activity versus clinical strains” value was “comparable with its efficacy versus the H37Rv strain”. Moreover, the “cross-resistance with DG167” value in test [2] is on record as “cross-resistant with DG167”.
